We go through six compounds from patent publication US20260159474A1, “Aminoindane Compounds and Compositions and Methods of Their Therapeutic Use” (Solvonis Therapeutics Ireland Holdings Limited, priority 2021, published 2026).

The nature of data set [1]: Intrinsic clearance in human liver microsomes. The class given is in vitro ADME. The settings on record: for microsomal CLint at 0.5 μM: pH 7.4, read-out: Cl (μL/min/mg protein) - Human Microsomes. The protocol: Methods: The general procedure involved incubating test compounds with liver microsomes and subsequently detecting the compounds to determine intrinsic clearance. Clearance was estimated from the rate of depletion k (min-1), the volume of the incubation V (mL), and the amount of microsomal proteins in the incubation M (mg). Intrinsic clearance is defined by the following equation: Clint=k*V/M.
Values for CLint are expressed as μL/min/mg liver microsomes. Verapamil and dextromethorphan were used as positive controls for CYP3A4 and CYP2D6 isoforms, respectively, to confirm metabolic activity. Stock solutions were prepared in DMSO for therapeutic compounds and positive controls verapamil and dextromethorphan (10 mM for all). Working solutions were prepared by diluting stock in MeOH to reach […]. However, this concentration can be varied, e.g., when the test item is not soluble in the selected solvent.
Prior to experimentation, frozen liver microsomes were thawed in a water bath at 37° C. and kept on ice until use. The microsomes were then diluted with 50 mM potassium phosphate buffer pH 7.4 to a protein concentration of 0.56 mg/mL. To prepare test and control items in final incubation conditions, 5 μL of test compound and positive control working solutions were added to 445 μL of microsomes incubation mixture at 0.56 mg/mL and 50 μL of regenerating system.
As it relates to the automated incubation procedure for microsomes incubation, the following procedure was followed. Briefly, 150 μL of quenching solution (ACN containing an appropriate Internal Standard, i.e. Rolipram and Diclofenac for positive and negative ion mode, respectively) was manually dispensed or dispensed by using the Hamilton system in each well of 96 deep well 1 mL plates. Next, 800-1000 μL-aliquots of NADPH regenerating system were pre-warmed at 37° C. for 5 minutes. 5 μL of 50 µM test items and control were added to 445 μL of the 0.56 mg/mL microsomes solution, and the incubation mixture was pre-warmed in a 96 deep well 2 mL plate (incubation plate) at 37° C. for 5 minutes. The incubation reactions were initiated by adding 50 μL of pre-warmed NADPH regenerating system to the incubation mixtures.
50 μL-aliquots were sampled from incubation mixtures at: 0, 3, 10, 15, 30, and 45 minutes. The samples were centrifuged at 3,000 rpm for 10 minutes and further diluted in order to optimize the analytical condition prior to the LC MS/MS or Rapid Fire-MS/MS analysis. Incubations of test items were run in duplicate (n=2) with a single positive control (n=1). For sample analysis, an LC-MS/MS system was used to monitor the test samples/control to internal standard peak area ratios as representative of the test or control item's concentration. Data from test item incubation was processed to give mean values where applicable. Metabolic stability was calculated from the ratio of peak area of the remaining test or control item with internal standard versus time.
Peak areas for test and control items were integrated using Integrator Software from Agilent or Analyst or MultiQuant Software from AB SciexTM and were exported to XLFit or Morphit (The Edge), which were designed to calculate in vitro metabolic stability parameters. The integrated peak areas of the test and control items at the selected time points were divided by the respective peak areas of the IS, and the percent of parent remaining was calculated by normalizing the peak area ratio of parent to IS at 0 min. Observed rate constant (kobs) for parent degradation was calculated by determining the slope of the line of the graph of the natural log of percentage parent remaining versus time of incubation. This was scaled for the protein in the incubation relative to that in the liver.

Data set [2] has as its target T1, human DAT (Homo sapiens, UniProt Q01959).
T1 construct: expressed in transfected cells; host or cells: CHO (hDAT-CHO)
Put plainly: DAT uptake SPA in hDAT-CHO cells. It is filed as cell-based.
Method: Methods-Evaluation of Monoamine Uptake/Transporter Inhibition: Inhibitory activity on DAT function was measured using an uptake assay in a recombinant CHO cell line stably expressing human DAT (hDAT-CHO). Potency was measured in terms of pIC50 by testing for inhibition of [3H]-dopamine uptake in hDAT-CHO cells in a multiwell format SPA.
Briefly, on experiment days, hDAT-CHO cells were detached using Versene and added at a density of approximately 300,000 cells/mL to the SPA Mixture, which contains the following components in Assay Buffer (20 mM HEPES, 145 mM NaCl, 5 mM KCl, 2 mM CaCl2), 1 mM MgCl2, 5.5 mM glucose, 0.01% Pluronic F127, pH 7.3): 0.75 mg/mL SPA Imaging beads (RPNQ0001, PerkinElmer), 10 μM pargyline and 80 nM of [3H]-dopamine (NET673, PerkinEImer). The SPA Mixture was added 20 μL/well to 384 well plates containing 0.1 μL/well of test compound in neat DMSO (11 points of 1:5 serial dilution, 0.5% DMSO final) or 0.1 μL of DMSO (total uptake) or 0.1 μL of the standard inhibitor indatraline (at 1 μM final concentration, as nonspecific uptake). Plates were sealed with a Top-seal A and read using a Microbeta counter (PerkinElmer) after 45 minutes of incubation at room temperature. […] The SPA Mixture was added 20 μL/well to 384 well plates containing 0.1 μL/well of test compound in neat DMSO (11 points of 1:5 serial dilution, 0.5% DMSO final), 0.1 μL of DMSO (total uptake), or 0.1 μL of the standard inhibitor indatraline (1 μM, nonspecific uptake). Plates were sealed with a Top-seal A and read using a Microbeta counter (PerkinElmer) after 120 minutes of incubation at room temperature.
For both tests, the raw experimental data (cpm) were elaborated for the determination of pIC50/IC50 values as % inhibition of specific uptake.

Data set [3] has as its system 5-HT release in rat synaptosomes. The data set is described as follows: Serotonin release assay in rat cortex synaptosomes. It is filed as biochemical. The settings on record: for 5-HT Release (pEC50): rat cortex synaptosomes, % of maximal release with 50 μM MDMA, n=2; for SERT/DAT Release Ratio: ratio of 5-HT and DA release potency, rat synaptosomes. The method, then:
Methods-Evaluation of Monoamine Release: The potency of therapeutic compounds for stimulating DA release was measured by an endpoint release filtration assay in a 96-well format using rat synaptosomes, essentially as described by Sandtner et al. (Mol Pharmacol., 2016; 89(1):165-75.) and Baumann et al. (Neuropsychopharmacol, 2013; 38:552-562.) with some variations. One male rat was euthanized, and striatum/cortex regions were dissected over ice. The striatum portions were weighed and put in a glass tube containing ice-cold 0.32 M sucrose (dilution 1:24 w/v) for homogenization, while the frontal cortex tissue was diluted in ice-cold 0.32 M sucrose, 1:20 w/v. Tissues were homogenized and centrifuged for 10 mins at 1000×g. The two supernatants from striatum and cortex (crude synaptosomes) were retained on ice until use.
Test compounds were then serially diluted 1:4 in neat DMSO as concentration-response curves (CRC) of 11 points. To each well of a 2-mL 96 deep-well plate (Whatman UNIPLATE 96 well) were added: 2 μL of a concentration-response curve (CRC) of test compounds or 2 μL of DMSO (no-release condition) or 2 μL of MDMA 10 mM solution (final 50 μM, for maximal release), followed by 200 μL/well of complete Krebs-phosphate buffer (126 mM NaCl, 2.4 mM KCl, 0.83 mM CaCl2), 0.8 mM MgCl2, 0.5 mM KH2PO4, 0.5 mM Na2SO4, 11.1 mM glucose, 0.05 mM pargyline, 1 mg/mL ascorbic acid, freshly added, pH 7.4), containing 1 μM reserpine to block vesicular uptake of substrate. Desipramine (100 nM) and citalopram (100 nM) were also added to the release assay buffer in order to inhibit NET and SERT uptake, respectively. The final compound dilution, then, was 1:200 in 0.5% DMSO.
The raw data (cpm) from residual radioactivity onto the filter were elaborated for the determination of pEC50/EC50 values. Specifically, the compound effect was expressed as the percent of maximal release obtained with 50 μM MDMA (100% release) in comparison to vehicle (0.5% DMSO, 0% release). Both MDMA and D-amphetamine in CRC were used as internal controls in each release experiment. In each plate, for both 0% and 100% of release, the signal window was monitored and Z′ calculations were determined using the raw data of four replicates. 5-HT release was calculated in an identical fashion, except that 5 nM 3H-serotonin was added to crude cortex synaptosomes preparation diluted 1:13 (v/v) in complete Krebs-phosphate buffer containing 1 μM Reserpine, 100 nM GBR12909 and 100 nM nomifensine to block vesicular, DAT, and NET uptake, respectively. Synaptosomes were then loaded with 3H-5HT for 60 minutes at RT. After dispensing loaded synaptosomes onto a compound plate (200 μL/well), the release reaction proceeded for an additional 15 minutes. Stop by filtration, counting, and data elaboration were performed as described for DA release. Compounds were tested in duplicate (n=2).

Where [4] appears, read: [3H]-dopamine uptake, hDAT-CHO cells, read-out: DAT Uptake SPA (pIC50) (converted).

Entries after “also recorded” stand apart in the source; their conditions may differ. Where two headings read alike, the source gives them in different places.

T1 sequence (Q01959 whole entry): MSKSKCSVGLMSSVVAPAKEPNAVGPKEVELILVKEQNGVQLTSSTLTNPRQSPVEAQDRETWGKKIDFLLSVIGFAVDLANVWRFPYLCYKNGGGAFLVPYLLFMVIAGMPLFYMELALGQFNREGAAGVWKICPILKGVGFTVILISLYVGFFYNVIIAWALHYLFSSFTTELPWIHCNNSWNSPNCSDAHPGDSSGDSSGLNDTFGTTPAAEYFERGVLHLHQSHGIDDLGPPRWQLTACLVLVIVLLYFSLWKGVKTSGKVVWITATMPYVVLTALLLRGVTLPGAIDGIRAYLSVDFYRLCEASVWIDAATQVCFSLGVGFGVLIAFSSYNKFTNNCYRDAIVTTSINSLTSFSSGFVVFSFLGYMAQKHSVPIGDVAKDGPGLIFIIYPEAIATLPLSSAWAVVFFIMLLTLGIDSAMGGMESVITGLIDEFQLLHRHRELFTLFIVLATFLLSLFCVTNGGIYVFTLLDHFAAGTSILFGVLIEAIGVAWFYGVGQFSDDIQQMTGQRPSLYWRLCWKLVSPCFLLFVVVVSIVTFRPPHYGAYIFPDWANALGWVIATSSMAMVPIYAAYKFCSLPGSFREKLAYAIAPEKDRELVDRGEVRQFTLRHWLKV

As to `COC(=O)c1cc2c(cc1OC)CC(N)C2` (stereo not drawn) [CMP-401], in data set [1], the “Cl (μL/min/mg protein) - Human Microsomes” value (“Cl (μL/min/mg protein)” for short) is given as “greater clearance in human microsomes relative to MDMA” and the microsomal CLint at 0.5 μM stood at 87.2 µL/min/mg. Also, in data set [2] (setting [4]), the IC50 was 100 µM. Besides, in data set [3], the “5-HT Release (pEC50)” value is reported as 5.5 and the “SERT/DAT Release Ratio” value is listed as above 35.
For `COC(=O)COc1ccc2c(c1)CC(N)C2` (stereo not drawn) [CMP-402], in data set [1], the “Cl (μL/min/mg protein)” value is on record as “greater clearance in human microsomes relative to MDMA; also recorded: greatest clearance” and the microsomal CLint at 0.5 μM amounted to 758 µL/min/mg. The IC50 in data set [2] (setting [4]) was 100 µM. In addition, in data set [3], the “5-HT Release (pEC50)” value stood at 5.0 and the “SERT/DAT Release Ratio” value is on record as above 10.
For the compound `COC(=O)c1ccc2c(c1)CC(N)C2` (stereo not drawn) [CMP-405, 2-aminoindane-5-methylcarboxylate], in data set [1], the “Cl (μL/min/mg protein)” value is on record as “greater clearance in human microsomes relative to MDMA” and the microsomal CLint at 0.5 μM turned out to be 137 µL/min/mg. In data set [2] (setting [4]), the IC50 was 20 µM. Further, in data set [3], the “5-HT Release (pEC50)” value is 6.1 and the “SERT/DAT Release Ratio” value is 3.2.
As to `CNC(C)Cc1ccc2c(c1)OCO2` (stereo not drawn) [MDMA], the “Cl (μL/min/mg protein)” value in data set [1] amounted to 41 μL/min/mg protein. For the same compound, in data set [2] ([3H]-dopamine uptake, hDAT-CHO cells), the “DAT Uptake SPA (pIC50)” value came to 5.7. In data set [3], the “5-HT Release (pEC50)” value worked out at 7.0 and the “SERT/DAT Release Ratio” value is listed as 2.6.
As for `COc1ccc2c(c1)CC(N)C2` (stereo not drawn) [MEAI, 5-methoxy-2-aminoindane], the microsomal CLint at 0.5 μM in data set [1] stood at 137 µL/min/mg. In data set [2], this compound showed an IC50 of 50.1 µM. In addition, in data set [3], the “5-HT Release (pEC50)” value turned out to be 6.8 and the “SERT/DAT Release Ratio” value is listed as 28.
On to `COc1cc2c(cc1C)CC(N)C2` (stereo not drawn) [MMAI, 5-methoxy-6-methyl-2-aminoindane], for which the microsomal CLint at 0.5 μM in data set [1] was 46.7 µL/min/mg. Moreover, the IC50 in data set [2] was 50.1 µM. Moreover, in data set [3], the “5-HT Release (pEC50)” value was 7.4 and the “SERT/DAT Release Ratio” value was 575.
